The values below come from US5985916A, “Polymer-platinum compounds” (Access Pharmaceuticals, Inc., priority 1998, dated 1999).

The structures appear in SMILES notation.

The conditions of series [1]: background; cited from earlier work.
Series [2] relates to B16 melanoma intraperitoneal tumor. In words: B16 melanoma i.p. tumor model in mice (survival, toxic deaths, body weight). The format is in vivo, mice (C57BL/6J). Conditions: single i.p. dose. From the text:
Male C57BL/6J mice were inoculated with 10^6 viable B16F10 cells intraperitoneally (i.p). […] Animals were monitored as described above.

Series [3] concerns COR-L23 cells. The series is described as follows: In vitro cytotoxicity (MTT assay), COR-L23. The format is cell-based. To be noted: 50% decrease in cell viability. As to the method:
(§1) The in vitro cytotoxicity of the polyamidoamine-platinum compounds was evaluated using the MTT assay described above and in Example 5.
(§2) The cell lines used, L132 (human embryonic lung cells), COR L23 (non-small cell lung cancer cells) and H69 (small cell lung cancer), were obtained from European Collection of Cell Cultures, Centre for Applied Biology, Microbiology and Research, Salisbury, Wiltshire UK.
(§3) Cells were cultured using standard conditions in microtitre plates.

Series [4] relates to L132 cells. In words: In vitro cytotoxicity (MTT assay), L132. The format is cell-based, human. Conditions: 50% decrease in cell viability. As for the experimental part:
as §1, §2, §3

Series [5] relates to H69 cells. The series is described as follows: In vitro cytotoxicity (MTT assay), H69 small cell lung carcinoma. The format is cell-based. To be noted: 50% decrease in cell viability. As for the experimental part:
as §1, §2, §3

Series [6] has as its system L1210 intraperitoneal tumor. The series is described as follows: L1210 i.p. tumor model in mice (survival and toxic deaths). The format is in vivo, mice (DBA2). As for the experimental part: The data in Table 3 is expressed as the ratio of the mean survival time of treated animals to the mean survival time of the untreated control animals×100 (T/C).
10^6 viable cells were administered to DBA2 mice (male 9-12 weeks, 20-30 g) i.p. on day 0. […] Animals were weighed daily and observed twice a day for signs of tumor progression and sacrificed if their body weight fell below 80% of the starting weight or if other severe toxicological problems were seen. At the end of the experiment changes in gross anatomy were noted.

Consider `N.N.[Cl][Pt][Cl]` [Cisplatin, Cis-diamminedichloroplatinum(II)], for which, in series [1], the “excretion, in words” value was “rapid excretion via the kidneys”. The T/C worked out at 134 in series [2] (5 mg/kg Pt) and 78 in series [2] (10 mg/kg Pt). Besides, in series [3], the “IC50, COR-L23” value was 7.38 ± 2.78 µg/mL. The “IC50, L132” value in series [4] came out at 4.80 ± 1.29 µg/mL. Further, in series [5], the “IC50, H-69” value amounted to 45.9 ± 20 µg/mL. Besides, the figures for the “T/C (mean survival time treated/control × 100)” value in series [6] (2 mg/kg Pt) and in series [6] (3 mg/kg Pt) were 171 and 64, respectively.
